Test results published in US20120116095A1, “GLYCINE TRANSPORTER INHIBITORS” (TAISHO PHARMACEUTICAL C0., LTD., priority 2009, published 2012).
Where two headings read alike, the source gives them in different places.

Key:
[1] = biological target: T1, human type 1 glycine transporter (GlyT1) (Homo sapiens, UniProt P48067); assay: Glycine uptake inhibition experiment ([3H]glycine uptake in T98G cells); type: cell-based; details: [3H]glycine 250 nM, 15 min, room temperature
T1 construct: Glioma T98G cells endogenously expressing human type 1 glycine transporter (GlyT1) were used; endogenous in cells; host or cells: T98G human glioma cells
T1 sequence (P48067 1-706): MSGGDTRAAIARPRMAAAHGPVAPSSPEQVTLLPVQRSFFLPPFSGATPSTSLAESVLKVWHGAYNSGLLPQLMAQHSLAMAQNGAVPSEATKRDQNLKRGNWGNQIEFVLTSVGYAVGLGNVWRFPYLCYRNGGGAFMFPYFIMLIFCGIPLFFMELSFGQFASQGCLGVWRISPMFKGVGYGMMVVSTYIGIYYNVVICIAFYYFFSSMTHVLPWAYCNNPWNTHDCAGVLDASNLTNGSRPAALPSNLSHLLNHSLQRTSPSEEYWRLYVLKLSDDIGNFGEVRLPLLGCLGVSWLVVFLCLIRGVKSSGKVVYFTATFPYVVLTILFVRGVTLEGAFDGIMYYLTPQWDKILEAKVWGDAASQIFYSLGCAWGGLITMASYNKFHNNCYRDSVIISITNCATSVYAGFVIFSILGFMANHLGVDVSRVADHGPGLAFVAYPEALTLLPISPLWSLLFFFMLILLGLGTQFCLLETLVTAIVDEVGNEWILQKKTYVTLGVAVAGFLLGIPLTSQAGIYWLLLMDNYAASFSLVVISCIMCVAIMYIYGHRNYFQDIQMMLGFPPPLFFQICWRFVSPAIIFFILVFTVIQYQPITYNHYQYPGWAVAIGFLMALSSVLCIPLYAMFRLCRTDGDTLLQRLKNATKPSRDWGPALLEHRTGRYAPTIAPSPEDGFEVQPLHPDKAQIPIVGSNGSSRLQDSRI
Method: A glycine uptake experiment was conducted as described in Neuron, 8, 927-935, 1992. Glioma T98G cells endogenously expressing human type 1 glycine transporter (GlyT1) were used. T98G cells were seeded in a 96-well plate at 2.0×10^4 cells/well and cultured overnight in a CO2 incubator. A test compound was dissolved in a 100% DMSO solution and then dissolved in 10 mM HEPES buffer (pH 7.4) containing 150 mM sodium chloride, 1 mM calcium chloride, 5 mM potassium chloride, 1 mM magnesium chloride, 10 mM glucose and 0.2% bovine serum albumin. After removing the cell culture medium, the cells were pre-treated with the test compound for 10 minutes. Subsequently, the test compound and [^3H]glycine (final concentration: 250 nM) were added to the cells and incubated at room temperature for 15 minutes. After the incubation, the extracellular solution was aspirated with a manifold to remove the excess labeled glycine existing outside the cells, and the cells were then lysed with 0.5 M aqueous sodium hydroxide. The amount of glycine uptake was determined by measuring radioactivity in the cell lysate using a liquid scintillation counter. Glycine uptake in the presence of 10 μM ALX5407 was defined as non-specific uptake, and the value calculated by subtracting this non-specific uptake from the total uptake in the absence of 10 μM ALX5407 was defined as specific uptake. Moreover, an inhibition curve was obtained for each test compound at concentrations of […] to calculate the glycine uptake inhibitory activity (IC50 value) of each test substance.
It should be noted that ALX5407 is a HCl salt of N-[(3R)-3-([1,1′-biphenyl]-4-yloxy)-3-(4-fluorophenyl)propyl]-N-methylglycine.

P-glycoprotein (P-gp) = biological target: T2, P-glycoprotein (P-gp) (Homo sapiens, UniProt P08183); assay: Test for substrate recognition by P-gp (LLC-GA5-COL300 cells); type: in vitro ADME; details: 10 μM, Human MDR1-expressing LLC-GA5-COL300 cells, Apical to Basolateral and Basolateral to Apical
T2 construct: expressed in transfected cells; host or cells: LLC-GA5-COL300 (pig kidney LLC-PK1 cells expressing human MDR1)
T2 sequence (P08183 whole entry): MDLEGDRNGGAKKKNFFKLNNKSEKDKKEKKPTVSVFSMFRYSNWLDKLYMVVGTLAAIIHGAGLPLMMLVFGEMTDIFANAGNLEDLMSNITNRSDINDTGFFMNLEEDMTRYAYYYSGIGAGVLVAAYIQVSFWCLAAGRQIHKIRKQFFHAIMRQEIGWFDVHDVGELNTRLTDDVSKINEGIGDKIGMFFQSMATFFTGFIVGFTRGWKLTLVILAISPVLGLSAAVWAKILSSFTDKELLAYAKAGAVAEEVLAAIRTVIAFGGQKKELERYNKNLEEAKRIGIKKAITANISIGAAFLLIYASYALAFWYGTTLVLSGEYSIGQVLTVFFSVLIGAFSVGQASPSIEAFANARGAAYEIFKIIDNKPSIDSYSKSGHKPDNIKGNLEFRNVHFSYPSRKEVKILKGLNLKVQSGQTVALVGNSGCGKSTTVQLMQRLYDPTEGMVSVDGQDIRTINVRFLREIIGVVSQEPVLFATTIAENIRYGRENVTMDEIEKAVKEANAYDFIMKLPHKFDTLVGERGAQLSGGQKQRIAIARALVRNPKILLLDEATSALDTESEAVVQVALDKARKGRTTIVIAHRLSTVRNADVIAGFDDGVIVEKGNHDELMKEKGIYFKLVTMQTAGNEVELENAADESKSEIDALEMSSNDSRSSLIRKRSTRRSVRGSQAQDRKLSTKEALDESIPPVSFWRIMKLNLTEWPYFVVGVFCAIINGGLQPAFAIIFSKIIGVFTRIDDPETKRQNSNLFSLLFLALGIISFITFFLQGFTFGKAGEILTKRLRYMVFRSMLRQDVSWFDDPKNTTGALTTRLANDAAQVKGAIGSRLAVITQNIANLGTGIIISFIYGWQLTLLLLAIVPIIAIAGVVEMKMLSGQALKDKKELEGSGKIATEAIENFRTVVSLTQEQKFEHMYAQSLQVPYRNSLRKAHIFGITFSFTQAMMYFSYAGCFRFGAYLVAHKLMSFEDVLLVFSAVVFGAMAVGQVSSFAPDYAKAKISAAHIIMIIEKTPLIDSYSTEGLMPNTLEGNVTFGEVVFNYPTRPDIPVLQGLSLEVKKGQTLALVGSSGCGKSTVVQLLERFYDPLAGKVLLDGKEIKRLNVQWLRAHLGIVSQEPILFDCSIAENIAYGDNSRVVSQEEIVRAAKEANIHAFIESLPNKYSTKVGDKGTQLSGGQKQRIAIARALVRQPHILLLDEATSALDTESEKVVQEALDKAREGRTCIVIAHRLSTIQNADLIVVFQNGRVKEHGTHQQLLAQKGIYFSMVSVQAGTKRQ
Text: In the case of drugs that act on the central nervous system, it is generally important for such drugs to be transferred from blood into brain for development of their efficacy. In the blood-brain barrier, there is found P-glycoprotein (P-gp), which is a typical member of the efflux transporters that control drug penetration; and P-gp inhibits the penetration of its substrate drugs into the brain. Thus, in developing a drug, recognition performance as a P-gp substrate can be used as an indicator of brain penetration.
A test for substrate recognition by P-gp was conducted as described in J. Pharmacol. Exp. Ther. (1992) Vol. 263, No. 2, 840-845 and J. Biol. Chem. (1992) Vol. 267, No. 34, 24248-24252. Specifically, LLC-GA5-COL300 cells (i.e., a Human MDR1-expressing system originating from a pig kidney-derived cultured renal epithelial cell line, LLC-PK1) were used after being cultured for 4 days on trans wells, and the medium in each well was replaced by Hank's balanced salt solution (HBSS) immediately before use in the test. After a test compound solution (i.e., a DMSO solution of a test compound, which was further diluted with HBSS and adjusted to a final concentration of 10 μM) was added to the Donor side of the LLC-GA5-COL300 cells, aliquots of HBSS were sampled over time from the Acceptor side to determine the test compound concentration in each collected sample by LC-MS/MS.
The membrane permeability coefficient (×10^−6 cm/sec) was calculated by the accumulated amount of the compound into the Acceptor side for both directions, Apical to Basolateral and Basolateral to Apical. and the ratio of these coefficients (Efflux Ratio) was then used to evaluate substrate recognition by P-gp.

[2] = read-out: glycine uptake inhibitory activity (IC50 value)
[3] = read-out: glycine uptake inhibitory activity (IC50 value), bounds

SMILES | IC50 [1, 2] [nM] | IC50 [1, 3] [nM] | recognition as a P-gp substrate (Efflux Ratio criteria) (P-glycoprotein (P-gp))
COC(=O)c1cccc(-c2cc(CN(C(=O)c3ncn(C)n3)C3CCCCC3)ccc2F)c1 [Compound 2] | 12.6 | – | –
CC(C)N(Cc1ccc(F)c(-c2cccc(OC(F)(F)F)c2)c1)C(=O)c1ncn(C)n1 [Compound 3] | – | ≥ 100 | –
CC(C)N(Cc1ccc(F)c(-c2ccc(OC(F)(F)F)cc2)c1)C(=O)c1ncn(C)n1 [Compound 4] | – | ≥ 100 | –
CC(C)N(Cc1ccc(F)c(-c2cccc(CO)c2)c1)C(=O)c1ncn(C)n1 [Compound 5] | – | ≥ 100 | –
Cn1cnc(C(=O)N(Cc2ccc(F)c(-c3cccc(CO)c3)c2)C2CCCCC2)n1 [Compound 6] | 14.6 | – | –
CC(C)N(Cc1ccc(F)c(-c2cccc(CO)c2)c1)C(=O)c1cn(C)cn1 [Compound 7] | 25.9 | – | –
Cn1cnc(C(=O)N(Cc2ccc(F)c(-c3cccc(CO)c3)c2)C2CCCCC2)c1 [Compound 8] | 11 | – | –
CCC(CC)N(Cc1ccc(F)c(-c2cccc(CO)c2)c1)C(=O)c1cn(C)cn1 [Compound 11] | 35.1 | – | –
Cn1cnc(C(=O)N(Cc2ccc(F)c(-c3cccc(CO)c3)c2)C2CCC2)c1 [Compound 13, N-Cyclobutyl-N-{[6-fluoro-3′-(hydroxymethyl)biphenyl-3-yl]methyl}-1-methyl-1H-imidazole-4-carboxamide] | 4.33 | – | –
Cn1cnc(C(=O)N(Cc2ccc(F)c(-c3cccc(CO)c3)c2)C2CCCC2)c1 [Compound 14] | 2.78 | – | –
CC(C)N(Cc1ccc(F)c(-c2cccc(OC(F)(F)F)c2)c1)C(=O)c1cn(C)cn1 [Compound 15] | 21.4 | – | –
COCCN(Cc1ccc(F)c(-c2ccc(OC(F)(F)F)cc2)c1)C(=O)c1cn(C)cn1 [Compound 16] | 41.5 | – | –
CC(C)N(Cc1ccc(F)c(-c2ccc(F)c(F)c2)c1)C(=O)c1cn(C)cn1 [Compound 17] | 18.8 | – | not to be recognized as a P-gp substrate
CC(C)N(Cc1ccc(F)c(-c2ccc(F)cc2)c1)C(=O)c1cn(C)cn1 [Compound 18] | 8.89 | – | not to be recognized as a P-gp substrate
COc1ccc(-c2cc(CN(C(=O)c3cn(C)cn3)C(C)C)ccc2F)cc1F [Compound 19] | 18.6 | – | –
CC(C)N(Cc1ccc(F)c(-c2cccc(F)c2)c1)C(=O)c1cn(C)cn1 [Compound 20] | 7.19 | – | not to be recognized as a P-gp substrate
CCOc1cccc(-c2cc(CN(C(=O)c3cn(C)cn3)C(C)C)ccc2F)c1 [Compound 21] | 13.6 | – | –
CC(C)N(Cc1ccc(F)c(-c2ccccc2)c1)C(=O)c1cn(C)cn1 [Compound 22] | 11.6 | – | not to be recognized as a P-gp substrate
CC(C)N(Cc1ccc(F)c(-c2ccccc2F)c1)C(=O)c1cn(C)cn1 [Compound 23] | 21.4 | – | –
COc1ccc(-c2cc(CN(C(=O)c3cn(C)cn3)C(C)C)ccc2F)cc1 [Compound 25] | 25.4 | – | –
CC(C)N(Cc1ccc(F)c(-c2ccc(Cl)cc2)c1)C(=O)c1cn(C)cn1 [Compound 26] | 40 | – | –

SMILES | IC50 [1, 2] [nM] | IC50 [1, 3] [nM] | recognition as a P-gp substrate (Efflux Ratio criteria) (P-glycoprotein (P-gp))
CC(C)N(Cc1ccc(F)c(-c2cc(F)cc(F)c2)c1)C(=O)c1cn(C)cn1 [Compound 28] | 22.6 | – | –
CC(C)N(Cc1ccc(F)c(-c2ccc(C(F)(F)F)cc2)c1)C(=O)c1cn(C)cn1 [Compound 30] | – | ≥ 100 | –
Cn1cnc(C(=O)N(Cc2ccc(F)c(-c3ccc(F)c(F)c3)c2)C2CCCC2)c1 [Compound 31] | 21 | – | –
CC(C)CN(Cc1ccc(F)c(-c2ccc(F)c(F)c2)c1)C(=O)c1cn(C)cn1 [Compound 32] | – | ≥ 100 | –
CC(C)N(Cc1ccc(F)c(-c2cccc(OC(F)F)c2)c1)C(=O)c1cn(C)cn1 [Compound 34] | 49.4 | – | –
CC(C)N(Cc1ccc(F)c(-c2ccc(OC(F)F)cc2)c1)C(=O)c1cn(C)cn1 [Compound 35] | 48.9 | – | –
CC(C)N(Cc1ccc(F)c(-c2ccc(C#N)cc2F)c1)C(=O)c1cn(C)cn1 [Compound 37] | – | ≥ 100 | –
CC(C)N(Cc1ccc(F)c(-c2cc(F)cc(C#N)c2)c1)C(=O)c1cn(C)cn1 [Compound 39] | 48.5 | – | –
CCn1cnc(C(=O)N(Cc2ccc(F)c(-c3ccc(OC(F)(F)F)cc3)c2)C(C)C)c1 [Compound 40, 1-Ethyl-N-{[6-fluoro-4′-(trifluoromethoxy)biphenyl-3-yl]methyl}-N-(propan-2-yl)-1H-imidazole-4-carboxamide] | 35.9 | – | –
CC(C)N(Cc1ccc(F)c(-c2cc(F)c(F)c(F)c2)c1)C(=O)c1c[nH]cn1 [Compound 41] | – | > 1000 | –
CCn1cnc(C(=O)N(Cc2ccc(F)c(-c3cc(F)c(F)c(F)c3)c2)C(C)C)c1 [Compound 42] | 48.3 | – | –
COc1ccc(CN(C(=O)c2cn(C)cn2)C(C)C)cc1-c1ccc(F)cc1 [Compound 43] | – | > 1000 | –
Cc1ccc(CN(C(=O)c2cn(C)cn2)C(C)C)cc1-c1ccc(OC(F)(F)F)cc1 [Compound 46] | – | > 1000 | –
Cc1ccc(CN(C(=O)c2cn(C)cn2)C(C)C)cc1-c1ccc(F)cc1 [Compound 47] | – | > 1000 | –
CC(C)N(Cc1cc(-c2ccc(OC(F)(F)F)cc2)cc(C(F)(F)F)c1)C(=O)c1cn(C)cn1 [Compound 48] | – | > 1000 | –
CC(C)N(Cc1cc(-c2ccc(F)cc2)cc(C(F)(F)F)c1)C(=O)c1cn(C)cn1 [Compound 49] | – | > 1000 | –
CC(C)N(Cc1cc(OC(F)(F)F)cc(-c2ccc(F)cc2)c1)C(=O)c1cn(C)cn1 [Compound 50] | – | > 1000 | –
CC(C)N(Cc1ccc(Cl)c(-c2ccc(F)cc2)c1)C(=O)c1cn(C)cn1 [Compound 51] | – | ≥ 100 | –
CC(CO)N(Cc1ccc(F)c(-c2ccc(OC(F)(F)F)cc2)c1)C(=O)c1cn(C)cn1 (stereo not drawn) [Compound 52] | 30.7 | – | –
C=C(C)N(Cc1ccc(F)c(-c2ccc(OC(F)(F)F)cc2)c1)C(=O)c1cn(C)cn1 [Compound 53, N-{[6-Fluoro-4′-(trifluoromethoxy)biphenyl-3-yl]methyl}-1-methyl-N-(prop-1-en-2-yl)-1H-imidazole-4-carboxamide] | – | ≥ 100 | –
